{
  "source": "patent US20260274895A1",
  "about": "“DE NOVO DESIGNED MEMBRANE-TRAVERSING AND ORALLY BIOAVAILABLE MACROCYCLES” (UNIVERSITY OF WASHINGTON, priority 2022, published 2026)",
  "note": "Where a SMILES comes first, the peptide text is derived from it. [ ]: non-standard residue; d: D form. dNMeF = CN[C@H](Cc1ccccc1)C(=O)O; NMeL = CN[C@@H](CC(C)C)C(=O)O; dNMeL = CN[C@H](CC(C)C)C(=O)O; dNMeV = CN[C@@H](C(=O)O)C(C)C; NMeM = CN[C@@H](CCSC)C(=O)O; NMeV = CN[C@H](C(=O)O)C(C)C; NMeA = CN[C@@H](C)C(=O)O; Nle = CCCC[C@H](N)C(=O)O; dNMeA = CN[C@H](C)C(=O)O",
  "data": [
    {"conditions": "not given", "values": [
      {"compound": "CC(C)C[C@@H]1NC(=O)[C@@H](CC(C)C)NC(=O)[C@H]2CCCN2C(=O)[C@H](CC(C)C)NC(=O)[C@@H](CC(C)C)NC(=O)[C@H](CC(C)C)NC(=O)[C@@H]2CCCN2C(=O)[C@@H](C)NC1=O", "note": "[Design D8.1, lLplLaPL] (cyclo(L[dA]PL[dL]L[dP][dL]))", "membrane permeability in PAMPA (in words)": "most permeable 8 residue design in PAMPA"}
    ]},
    {"conditions": "PAMPA", "units": {"PAMPA_Papp_Avg (apparent permeability)": "×10⁻⁶ cm/s"}, "values": [
      {"compound": "CC(C)C[C@@H]1NC(=O)[C@@H](CC(C)C)NC(=O)[C@H]2CCCN2C(=O)[C@@H]2CCCN2C(=O)[C@@H](CC(C)C)NC(=O)[C@@H](CC(C)C)N(C)C(=O)[C@@H]2CCCN2C1=O", "note": "[Design D7.5, LP*llPpl] (cyclo(LP[dNMeL][dL]P[dP][dL]))", "PAMPA_Papp_Avg (apparent permeability)": 6.64},
      {"compound": "CC[C@@H](C)[C@H]1NC(=O)[C@@H](Cc2ccccc2)NC(=O)[C@@H]2CCCN2C(=O)[C@@H]([C@H](C)CC)NC(=O)[C@@H](Cc2ccccc2)NC(=O)[C@@H]2CCCN2C1=O", "note": "[Design D6.1, iPfiPf] (cyclo(P[dF][dI]P[dF][dI]))", "PAMPA_Papp_Avg (apparent permeability)": 3.34},
      {"compound": "CC(C)C[C@@H]1NC(=O)[C@H](C(C)C)NC(=O)[C@@H](CC(C)C)N(C)C(=O)[C@H](C)NC(=O)[C@@H](CC(C)C)N(C)C(=O)[C@@H]2CCCN2C(=O)[C@H]2CCCN2C(=O)[C@H](C)N(C)C(=O)[C@H]2CCCN2C(=O)[C@@H](CC(C)C)NC1=O", "note": "[Design D10.35, Llp*ApP*LA*lV] (cyclo([dNMeL]A[dNMeL]VL[dL][dP][NMeA][dP]P))", "PAMPA_Papp_Avg (apparent permeability)": 0.279},
      {"compound": "CC[C@H](C)[C@@H]1NC(=O)[C@@H](Cc2ccccc2)NC(=O)[C@@H](C)NC(=O)[C@@H](C(C)C)NC(=O)[C@H](CCSC)NC(=O)[C@@H]2CCCN2C(=O)[C@H]2CCCN2C(=O)[C@@H]2CCCN2C(=O)[C@@H](C)N(C)C(=O)[C@@H](CC(C)C)N(C)C1=O", "note": "[Design D10.45, vafI*l*aPpPM] (cyclo(M[dV][dA][dF]I[dNMeL][dNMeA]P[dP]P))", "PAMPA_Papp_Avg (apparent permeability)": 0.487},
      {"compound": "CC[C@@H](C)[C@H]1NC(=O)[C@@H](Cc2ccccc2)NC(=O)[C@@H](CC(C)C)NC(=O)[C@@H]2CCCN2C(=O)[C@H]2CCCN2C(=O)[C@H](CC(C)C)NC(=O)[C@H](CC(C)C)NC(=O)[C@@H](CC(C)C)N(C)C(=O)[C@H](C)N(C)C(=O)[C@H]2CCCN2C1=O", "note": "[Design D10.34, fip*A*lLLpPl] (cyclo([dL][dF][dI][dP][NMeA][dNMeL]LL[dP]P))", "PAMPA_Papp_Avg (apparent permeability)": 4.51},
      {"compound": "CC[C@@H](C)[C@H]1NC(=O)[C@H](CC(C)C)NC(=O)[C@@H](CC(C)C)NC(=O)[C@H](C(C)C)NC(=O)[C@@H](Cc2ccccc2)N(C)C(=O)[C@@H]2CCCN2C(=O)[C@@H](CC(C)C)NC(=O)[C@H](CC(C)C)N(C)C(=O)[C@H]2CCCN2C1=O", "note": "[Design D9.3, Lip*LlP*fVl] (cyclo(L[dI][dP][NMeL][dL]P[dNMeF]V[dL]))", "PAMPA_Papp_Avg (apparent permeability)": 2.33},
      {"compound": "CC(C)C[C@@H]1NC(=O)[C@@H](CC(C)C)NC(=O)[C@H]2CCCN2C(=O)[C@H](CC(C)C)NC(=O)[C@@H](CC(C)C)NC(=O)[C@H](CC(C)C)NC(=O)[C@@H]2CCCN2C(=O)[C@@H](C)NC1=O", "note": "[Design D8.1, lLplLaPL] (cyclo(L[dA]PL[dL]L[dP][dL]))", "PAMPA_Papp_Avg (apparent permeability)": 6.94},
      {"compound": "CSCC[C@H]1C(=O)N(C)[C@H](C)C(=O)N[C@H](CC(C)C)C(=O)N2CCC[C@@H]2C(=O)N2CCC[C@H]2C(=O)N[C@@H](CC(C)C)C(=O)N2CCC[C@H]2C(=O)N2CCC[C@@H]2C(=O)N[C@H](C(C)C)C(=O)N1C", "note": "[Design D9.24, pv*M*alpPLP] (cyclo(LP[dP][dV][NMeM][dNMeA][dL][dP]P))", "PAMPA_Papp_Avg (apparent permeability)": 0.0869},
      {"compound": "CC(C)[C@@H]1NC(=O)[C@@H]2CCCN2C(=O)[C@@H]2CCCN2C(=O)[C@@H](Cc2ccccc2)NC(=O)[C@@H]2CCCN2C(=O)[C@@H](Cc2ccccc2)NC1=O", "note": "[Design D6.5, PPVfPf] (cyclo(PPV[dF]P[dF]))", "PAMPA_Papp_Avg (apparent permeability)": 2.41},
      {"compound": "CC(C)C[C@H]1NC(=O)[C@@H]2CCCN2C(=O)[C@@H](C(C)C)NC(=O)[C@@H](C)N(C)C(=O)[C@@H](C(C)C)NC(=O)[C@@H]2CCCN2C(=O)[C@@H](Cc2ccccc2)NC(=O)[C@H](CC(C)C)N(C)C(=O)[C@@H](C(C)C)NC1=O", "note": "[Design D9.9, Pv*avPlv*Lf] (cyclo([NMeL][dF]P[dV][dNMeA][dV]P[dL][dV]))", "PAMPA_Papp_Avg (apparent permeability)": 3.51},
      {"compound": "CC(C)C[C@@H]1C(=O)N(C)[C@@H](CC(C)C)C(=O)N2CCC[C@@H]2C(=O)N[C@H](CC(C)C)C(=O)N[C@H](C)C(=O)N2CCC[C@@H]2C(=O)N2CCC[C@H]2C(=O)N[C@@H](C)C(=O)N[C@H](Cc2ccccc2)C(=O)N[C@H](CC(C)C)C(=O)N[C@@H](C(C)C)C(=O)N1C", "note": "(single isomer, unassigned) [Design D11.9.p1, V*l*LplapPAfl]", "PAMPA_Papp_Avg (apparent permeability)": 0.879},
      {"compound": "CC(C)[C@H]1NC(=O)[C@@H]2CCCN2C(=O)[C@@H](C)NC(=O)[C@@H](Cc2ccccc2)NC(=O)[C@@H]2CCCN2C(=O)[C@H](Cc2ccccc2)NC1=O", "note": "[Design D6.7, faPvFP] (cyclo(FP[dF][dA]P[dV]))", "PAMPA_Papp_Avg (apparent permeability)": 0.424},
      {"compound": "CC(C)C[C@@H]1NC(=O)[C@H](C)NC(=O)[C@@H]2CCCN2C(=O)[C@H]2CCCN2C(=O)[C@H](Cc2ccccc2)NC(=O)[C@H]2CCCN2C(=O)[C@@H](Cc2ccccc2)N(C)C(=O)[C@@H]2CCCN2C(=O)[C@@H](C)NC(=O)[C@H](CC(C)C)NC1=O", "note": "[Design D10.49, aP*fpFpPALL] (cyclo(ALL[dA]P[dNMeF][dP]F[dP]P))", "PAMPA_Papp_Avg (apparent permeability)": 0.17},
      {"compound": "CC[C@@H](C)[C@H]1NC(=O)[C@@H](CC(C)C)N(C)C(=O)[C@@H]2CCCN2C(=O)[C@@H]([C@H](C)CC)NC(=O)[C@@H](CC(C)C)NC(=O)[C@@H](CC(C)C)N(C)C(=O)[C@@H]2CCCN2C(=O)[C@@H](C(C)C)NC1=O", "note": "[Design D8.8, P*lliP*liv] (cyclo(P[dNMeL][dI][dV]P[dNMeL][dL][dI]))", "PAMPA_Papp_Avg (apparent permeability)": 5.9},
      {"compound": "CCCC[C@@H]1NC(=O)[C@H](C(C)C)NC(=O)[C@H]2CCCN2C(=O)[C@@H]2CCCN2C(=O)[C@H](C)NC(=O)[C@@H](C)N(C)C(=O)[C@@H](CC(C)C)N(C)C(=O)[C@@H](C(C)C)NC(=O)[C@@H]2CCCN2C1=O", "note": "[Design D9.21, APpVMPv*l*a] (cyclo(AP[dP]V[Nle]P[dV][dNMeL][dNMeA]))", "PAMPA_Papp_Avg (apparent permeability)": 0.294},
      {"compound": "CC(C)[C@H]1C(=O)N[C@H](Cc2ccccc2)C(=O)N2CCC[C@H]2C(=O)N[C@H](Cc2ccccc2)C(=O)N2CCC[C@H]2C(=O)N2CCC[C@H]2C(=O)N1C", "note": "[Design D6.6, PP*VfPf] (cyclo([NMeV][dF]P[dF]PP))", "PAMPA_Papp_Avg (apparent permeability)": 3.64},
      {"compound": "CC(C)C[C@@H]1C(=O)N(C)[C@H](CC(C)C)C(=O)N[C@H](CC(C)C)C(=O)N[C@@H](C(C)C)C(=O)N2CCC[C@@H]2C(=O)N2CCC[C@H]2C(=O)N[C@H](CC(C)C)C(=O)N[C@@H](C(C)C)C(=O)N1C", "note": "[Design D8.23, lV*l*llVpP] (cyclo([dL]V[dNMeL][dNMeL][dL]V[dP]P))", "PAMPA_Papp_Avg (apparent permeability)": 1.28},
      {"compound": "CC(C)C[C@H]1C(=O)N2CCC[C@@H]2C(=O)N[C@@H](Cc2ccccc2)C(=O)N2CCC[C@H]2C(=O)N(C)[C@H](C(C)C)C(=O)N[C@H](Cc2ccccc2)C(=O)N1C", "note": "[Design D6.10, *vf*LpFP] (cyclo(FP[dNMeV][dF][NMeL][dP]))", "PAMPA_Papp_Avg (apparent permeability)": 11.6},
      {"compound": "CC(C)C[C@@H]1C(=O)N(C)[C@@H](CC(C)C)C(=O)N2CCC[C@@H]2C(=O)N[C@H](CC(C)C)C(=O)N[C@H](C)C(=O)N2CCC[C@@H]2C(=O)N2CCC[C@H]2C(=O)N[C@@H](C)C(=O)N[C@H](Cc2ccccc2)C(=O)N[C@H](CC(C)C)C(=O)N[C@@H](C(C)C)C(=O)N1C", "note": "(single isomer, unassigned) [Design D11.9.p2, V*l*LplapPAfl]", "PAMPA_Papp_Avg (apparent permeability)": 2.09},
      {"compound": "CC(C)C[C@@H]1C(=O)N[C@@H](C)C(=O)N[C@H](CC(C)C)C(=O)N2CCC[C@H]2C(=O)N[C@H](C)C(=O)N2CCC[C@@H]2C(=O)N2CCC[C@H]2C(=O)N[C@H](C(C)C)C(=O)N[C@H](CC(C)C)C(=O)N(C)[C@H](CC(C)C)C(=O)N1C", "note": "[Design D10.43, apPvl*l*LAlP] (cyclo([dV][dL][dNMeL][dNMeL]A[dL]P[dA][dP]P))", "PAMPA_Papp_Avg (apparent permeability)": 0.161},
      {"compound": "CC(C)C[C@@H]1NC(=O)[C@@H](Cc2ccccc2)NC(=O)[C@@H](CC(C)C)N(C)C(=O)[C@@H]2CCCN2C(=O)[C@H](C)NC(=O)[C@@H](CC(C)C)N(C)C(=O)[C@@H]2CCCN2C(=O)[C@H](CC(C)C)N(C)C(=O)[C@H](CC(C)C)N(C)C(=O)[C@H](C(C)C)NC1=O", "note": "[Design D10.20, P*lAP*lfLV*L*L] (cyclo(AP[dNMeL][dF]LV[NMeL][NMeL]P[dNMeL]))", "PAMPA_Papp_Avg (apparent permeability)": 2.59}
    ]}
  ]
}
